The text below walks through data of patent US11999727B2 (Tango Therapeutics, Inc., priority 2020, dated 2024).

The subject of assay [1] is MTAP-null SW1573 cancer cell line. The assay can be described thus: Combination viability assay (CellTiter-Glo, 7 days), SW1573 MTAP-deleted cells. It counts as cell-based. The note with it: 7-day viability assay, combination partner: exemplar MTAPnull-selective PRMT5 inhibitor. As for the experimental part: A SW1573 MTAP-isogenic cell line pair was generated by either reconstituting MTAP gene expression, or by introducing an empty control vector, in the MTAP-deleted SW1573 parental cell line. The cell lines were maintained in DMEM+10% FBS in a humidified, 5% CO2 tissue culture incubator. All test compounds are maintained as 10 mM DMSO stocks.
On Day 0, MTAP-intact and MTAP-deleted cells are seeded in a 384-well plate, and incubated in a humidified, 5% CO2 tissue culture incubator for 16-24 hours. On Day 1, the test compounds are dispensed to wells at defined concentrations (n=2), and the volume of DMSO is normalized to highest class volume. The compound-treated plates are incubated for 7 days in a humidified, 5% CO2 tissue culture incubator.
On Day 7, the plates are removed from the tissue culture incubator and allowed to equilibrate to room temperature. Relative viability is assessed by addition of CellTiter-Glo reagent, and data are plotted as % of DMSO control for each compound in each cell line, with a 4-parameter fit non-linear regression model (GraphPad Prism). Synergy is determined according to the HSA model by the Combenefit software package (Version 2.021).
In general terms: Cellular ATP, detected with luciferase, serves as a proxy for viable cell number.

Assay [2] shares this test system. The assay can be described thus: 7-day viability assay, combination with an exemplar MTAP-null-selective PRMT5 inhibitor, SW1573. It counts as cell-based. The settings on record: in combination with an exemplar MTAP-null-selective PRMT5 inhibitor. An excerpt:
FIG. 3. Combination of AG-270, a MAT2A inhibitor effect is synergistic according to the HSA model, where the synergy score quantifies the excess of the highest single compound response

Assay [3] deals with HAP1 MTAP-intact cell line. The assay can be described thus: SDMA in-cell western assay, HAP1 MTAP-intact. The note with it: Homo sapiens, HAP1, SDMA in-cell western, HAP1 MTAP-intact; read-out: MTAP HAP1 intact IC50. The format is cell-based. The gist of the method:
(§1)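 Isogenic HAP1 pair: the MTAP-intact line expresses endogenous MTAP, and the deleted line is MTAP-null. Symmetric dimethylarginine was detected by in-cell western and IC50 values derived for each line.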

In assay [4] the test system is HAP1 MTAP-deleted cell line. The experiment in a line: SDMA in-cell western assay, HAP1 MTAP-deleted. It counts as cell-based. The note with it: for IC50: Homo sapiens, HAP1, SDMA in-cell western, HAP1 MTAP-deleted, read-out: HAP 1 MTAP deleted IC50; for MTAP intact/deleted ratio: IC50 ratio HAP1 MTAP-intact / HAP1 MTAP-deleted, SDMA in-cell western. The gist of the method: as §1

Assay [5] addresses T1, PRMT5 (Homo sapiens, UniProt O14744).
T1 construct: purchased Viva (custom protein)
The experiment in a line: PRMT5 biochemical IC50 assay with SAM as cofactor. The note with it: PRMT5, SAM as cofactor; read-out: SAM IC50.

In assay [6] the test system is HAP1 MTAP-deleted cell line. The experiment in a line: Viability assay, MTAP-deleted cell line. The format is cell-based. The note with it: Homo sapiens, HAP1, viability, HAP1 MTAP-deleted cell line; read-out: HAP1 MTAP deleted viability. An excerpt:
Table 1 additionally indicates IC50 values in a viability assay for the MTAP-deleted cell line (column 10), indicating the effect of treatment with compound on cell survival.

In assay [7] the target is T1, PRMT5. The assay can be described thus: PRMT5 biochemical IC50 assay with MTA as cofactor. The settings on record: PRMT5, MTA as cofactor; read-out: MTA IC50.
Assay [8] has as its target T1, PRMT5. The experiment in a line: PRMT5 biochemical IC50 assay with no cofactor. The note with it: PRMT5, no cofactor; read-out: No Cofactor/ rel IC50. The text has this: Table 1 indicates IC50 values (μM) against PRMT5 for exemplary compounds in the presence of SAM as cofactor, with no cofactor, and with MTA as cofactor, respectively (columns 4-6). […] Ki values can be calculated from the IC50 values as described in the Examples section. As detailed in the Examples section, for the assay performed in the presence of SAM, IC50=Ki×1.5 (Ki=IC50/1.5).

T1 sequence (O14744 whole entry): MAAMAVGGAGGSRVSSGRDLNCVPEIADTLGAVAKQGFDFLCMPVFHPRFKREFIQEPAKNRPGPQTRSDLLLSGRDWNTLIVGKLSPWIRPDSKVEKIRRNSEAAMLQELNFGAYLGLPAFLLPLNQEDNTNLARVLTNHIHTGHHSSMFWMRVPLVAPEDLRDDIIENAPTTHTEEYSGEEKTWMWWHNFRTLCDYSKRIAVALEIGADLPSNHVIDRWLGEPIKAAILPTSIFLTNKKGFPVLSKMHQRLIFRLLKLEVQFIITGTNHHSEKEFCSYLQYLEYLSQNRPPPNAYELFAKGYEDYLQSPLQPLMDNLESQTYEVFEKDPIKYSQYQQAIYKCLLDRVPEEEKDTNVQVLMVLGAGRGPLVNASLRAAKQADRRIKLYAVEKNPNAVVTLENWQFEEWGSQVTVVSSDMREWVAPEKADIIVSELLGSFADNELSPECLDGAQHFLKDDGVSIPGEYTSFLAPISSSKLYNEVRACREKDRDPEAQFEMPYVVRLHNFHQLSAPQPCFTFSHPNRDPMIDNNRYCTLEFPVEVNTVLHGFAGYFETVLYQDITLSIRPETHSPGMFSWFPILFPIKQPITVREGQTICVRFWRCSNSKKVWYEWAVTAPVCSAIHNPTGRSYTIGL
T1 sequence (Q9BQA1 whole entry partner): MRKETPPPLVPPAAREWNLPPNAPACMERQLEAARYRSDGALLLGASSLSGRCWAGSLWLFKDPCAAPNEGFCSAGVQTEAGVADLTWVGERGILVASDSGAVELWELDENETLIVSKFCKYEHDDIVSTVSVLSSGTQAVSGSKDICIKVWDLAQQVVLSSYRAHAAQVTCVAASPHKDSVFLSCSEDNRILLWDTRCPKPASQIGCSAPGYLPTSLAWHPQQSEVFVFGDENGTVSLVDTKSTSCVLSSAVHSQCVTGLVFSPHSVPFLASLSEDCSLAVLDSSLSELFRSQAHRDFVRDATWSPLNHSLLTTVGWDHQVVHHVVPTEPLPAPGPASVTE

Consider `C=CC(=O)N1CCN(c2nc(=O)n(-c3c(C)ccnc3C(C)C)c3nc(-c4c(O)cccc4F)c(F)cc23)[C@@H](C)C1` [AMG-510], for which the “cellular viability, combination with an exemplar MTAP-null-selective PRMT5 inhibitor” value in assay [1] was “enhanced cellular viability defects”. In addition, the “Effect of the combination on cellular viability” value in assay [2] is recorded as “enhanced cellular viability defects”.
For `CCc1cc(NC(=O)C(=O)N2C[C@@H](C)CC[C@@H]2c2ccc(CCN(C)C)c(Cl)c2)cnc1N` [Compound 1402, N-(6-amino-5-ethylpyridin-3-yl)-2-((2R,5S)-2-(3-chloro-4-(2-(dimethylamino)ethyl)phenyl)-5-methylpiperidin-1-yl)-2-oxoacetamide], the IC50 in assay [3] is 0.1 to 1 µM; in assay [4], less than 0.1 µM; in assay [5], 0.05 to 0.5 µM; in assay [6] it was less than 1 µM; in assay [7] it was less than 0.05 µM; in assay [8] it was less than 0.05 µM. Besides, the “MTAP intact/deleted ratio” value in assay [4] is given as “A (an IC50 ratio greater than or equal to 10 fold)”.
Regarding `CCc1cc(NC(=O)C(=O)N2C[C@@H](C)CC[C@@H]2c2ccc3sc(C45CC(N(C)C)(C4)C5)nc3c2)cnc1N` [Compound 1404, N-(6-amino-5-ethylpyridin-3-yl)-2-((2R,5S)-2-(2-(3-(dimethylamino)bicyclo[1.1.1]pentan-1-yl)benzo[d]thiazol-5-yl)-5-methylpiperidin-1-yl)-2-oxoacetamide], the IC50 in assay [3] was less than 0.1 µM; in assay [4] it was less than 0.1 µM; in assay [5], less than 0.05 µM; in assay [6] it was less than 1 µM; in assay [7], less than 0.05 µM; in assay [8] it was less than 0.05 µM. Besides, the “MTAP intact/deleted ratio” value in assay [4] was “A (an IC50 ratio greater than or equal to 10 fold)”.
For `O=C(Nc1ccc2[nH]nc(-c3ccncc3)c2c1)[C@@H]1CCN(CC(=O)N2CCN(c3ccc(-c4ncccn4)cc3)CC2)C1` [SCH772984], the “cellular viability, combination with an exemplar MTAP-null-selective PRMT5 inhibitor” value in assay [1] is “enhanced cellular viability defects”. For the same compound, the “Effect of the combination on cellular viability” value in assay [2] is “enhanced cellular viability defect”.
The like results for `CC(C)Nc1cc(-c2c[nH]c(C(=O)N[C@H](CO)c3cccc(Cl)c3)c2)c(Cl)cn1` [ulixertinib] were, in that order, “enhanced cellular viability defects” and “enhanced cellular viability defect”.
